A word on the IC50: it is the concentration at which inhibition is half-maximal. A lower IC50 goes with inhibition by little substance.

Data on ten compounds can be found in patent publication US9969771B2, “Tetrapeptide having effect of inhibiting VEGF-induced angiogenesis and use thereof” (AVIXGEN INC., priority 2015, dated 2018).

Experiment [1] concerns HUVECs. In words: VEGF-induced HUVEC proliferation, [3H]-thymidine incorporation assay. Type of experiment: cell-based, human. To be noted: for IC50: 3 h; for inhibition of VEGF-induced HUVEC proliferation: VEGF 10 ng/ml, [3H]-thymidine incorporation. Here is the method:
Human umbilical vein endothelial cells (HUVECs) were cultured in M199 medium, and during experiments, the cells were always used at passages 2 to 7. Meanwhile, mouse melanoma cells (B16F1 and B16F10) and human colorectal tumor cells (HCT116) were cultured in RPMI media supplemented with 10% FBS, 1 mM sodium pyruvate, 10 mM 4-(2-hydroxyethyl)-1-piperazineethanesulfonic acid and 100 U/ml penicillin-streptomycin, and human multiple myeloma cells (IM-9 and RPMI 8226) were cultured in RPMI-1640 media. All of the cells were cultured at 37° C. with 5% CO2 in a humidified incubator.
Angiogenic activity was determined by measuring cell proliferation, migration and tube formation. HUVEC proliferation was analyzed by a [3H]-thymidine incorporation assay. The HUVECs were seeded in a 24-well plate coated with gelatin at a density of 2×10^4 cells/well. […] […] […] 3H-labeled polymer DNA was evaluated with a liquid scintillation counter.
Background: Incorporation of labelled thymidine or its analogues reports DNA synthesis.

For another experiment, the system named is ERK. The experiment is described as follows: Western blot, ERK phosphorylation in HUVECs. It is filed as cell-based, human. The note with it: VEGF / VEGF-A stimulated. The method, then: Cells were lyzed in RIPA buffer, and 50 μg of proteins were isolated by SDS-PAGE and then transferred to a PVDF membrane. The membrane was reacted with an antibody with respect to a target protein for 2 hours. The membrane was washed twice and reacted with a horseradish peroxidase-conjugated antibody, and then an amount of the target proteins was assessed with an enhanced chemiluminescence system.
Background: Immunoblotting shows a protein as a band on a membrane.

A further experiment relates to zebrafish. The experiment is described as follows: Zebrafish angiogenesis assay. The note with it: zebrafish embryo. It is filed as in vivo. The method, then:
An adult zebrafish and an embryo were grown and maintained in a standard laboratory environment, and a zebrafish experiment was conducted according to the protocols approved by the animal ethics committee of Chungnam National University. To analyze angiogenesis, at 48 hours post fertilization (hpf), the embryo was anesthetized with tricaine (MS-222, 0.02%, embryo buffer), a peptide was administered, and FITC-dextran (2,000 kDa, Sigma) was further injected. A blood vessel image was obtained with a Leica DM5000B system at 72 hpf. As a probe for whole mount in situ hybridization, digoxigenin (DIG)-labeled RNA prepared by a cad5 (NM_001003983) gene was used. Meanwhile, a peptide was injected into the 18-hpf embryo collected at 25 hpf, fixed with 4% paraformaldehyde, washed with PBS (in 0.1% Tween20), and hybridized with DIG-labeled riboprobes (hybridization buffer). Subsequently, the resulting product was reacted with an alkaline phosphatase (AP)-conjugated anti-DIG antibody. Following reaction with an AP staining solution, a staining status was observed and visualized under a microscope (Leica, MZ-16).

The test system of experiment [2] is HUVECs. The experiment is described as follows: FACS analysis of FITC-RLYE binding to HUVECs. Set-up: species or system human. Here is the method: HUVECs were cultured in a 60-mm culture plate for 24 hours. The cells were isolated from the plate with 5 mM EDTA-containing phosphate-buffered saline (PBS), washed with PBS three times, and suspended in 2% FBS/0.1% bovine serum albumin-containing PBS. Afterward, before or after the reaction with FITC-conjugated RLYE (SEQ ID NO: 2) (15 nM), the cells were treated with VEGF (100 ng/ml), stored on ice for 30 minutes, fixed in 2% paraformaldehyde, and assessed with a fluorescence activated cell sorter (FACS Calibur, Becton Dickinson) by flow cytometry.

Where a SMILES comes first, the peptide text is derived from it. Where no end group is shown, it is not given here. The star is where a group is joined. FITC = O=C1OC2(c3ccc(O)cc3Oc3cc(O)ccc32)c2ccc(NC(=S)*)cc21

For `CC(C)C[C@H](NC(=O)[C@@H](N)CCCCN)C(=O)N[C@@H](Cc1ccc(O)cc1)C(=O)N[C@@H](CC(=O)O)C(=O)O` [KLYD, reference compound] (H-KLYD-OH; N-terminus and C-terminus assumed), in the experiment on HUVECs [1], half-maximal inhibition (IC50) required 0.79 nM and the “inhibition of VEGF-induced HUVEC proliferation” value is reported as “significantly inhibited”.
Take `CC(C)C[C@H](NC(=O)[C@@H](N)CCCCN)C(=O)N[C@@H](Cc1ccc(O)cc1)C(=O)N[C@@H](CCC(=O)O)C(=O)O` [KLYE] (H-KLYE-OH; N-terminus and C-terminus assumed): in the experiment on HUVECs [1], the IC50 amounted to 0.3 nM and the “inhibition of VEGF-induced HUVEC proliferation” value is listed as “effectively inhibited”. The “inhibition of VEGF-induced ERK phosphorylation” value in the experiment on ERK is “more effectively inhibited”.
Taken in the same sequence, the figures for `CC(C)C[C@H](NC(=O)[C@@H](N)CCCNC(=N)N)C(=O)N[C@@H](Cc1ccc(O)cc1)C(=O)N[C@@H](CC(=O)O)C(=O)O` [RLYD] (H-RLYD-OH; N-terminus and C-terminus assumed) were 0.14 nM, “effectively inhibited” and “more effectively inhibited”.
Consider `CC(C)[C@H](NC(=O)[C@@H](N)CCCNC(=N)N)C(=O)N[C@@H](Cc1ccc(O)cc1)C(=O)N[C@@H](CCC(=O)O)C(=O)O` [RVYE] (H-RVYE-OH; N-terminus and C-terminus assumed), for which, in the experiment on HUVECs [1], 0.39 nM corresponded to half-maximal inhibition (IC50) and the “inhibition of VEGF-induced HUVEC proliferation” value was “effectively inhibited”. The “inhibition of VEGF-induced ERK phosphorylation” value in the experiment on ERK is on record as “more effectively inhibited”.
Take “EYLR: scrambled peptide against RLYE, used as a control [reference compound]”: the “inhibition of VEGF-induced HUVEC proliferation” value with HUVECs [1] is “did not exhibit a significant inhibitory effect”. In addition, in the experiment on zebrafish, the “formation of intersegmental vessels (ISV)” value was “did not affect the ISV formation” and the “formation of subintestinal vessels (SIV)” value is “did not affect the SIV formation”.
Take “FITC-RLYE: FITC-conjugated RLYE (SEQ ID NO: 2) peptide used for FACS and confocal binding ({FITC}-RLYE)”: the “binding to HUVEC surface (FACS)” value in the experiment with HUVECs [2] (VEGF-A-pretreated cells) was “did not bind”; in the experiment with HUVECs [2] (cells not treated with VEGF-A), “bound to a cell surface”.
Regarding “KIYD: synthesized tetrapeptide based on KLYD”, the “inhibition of VEGF-induced HUVEC proliferation” value in the experiment with HUVECs [1] was “inhibitory effect similar to the positive control”.
Still for that read-out and setting: for “KLFD: synthesized tetrapeptide based on KLYD” the value was “inhibitory effect similar to the positive control”; for “KLWD: synthesized tetrapeptide based on KLYD”, “did not exhibit a significant inhibitory effect”; for “RLME: synthesized tetrapeptide based on KLYD”, “did not exhibit a significant inhibitory effect”.
